Laboratory results taken from the NIST ThermoML archive (doi:10.1016/j.jct.2017.07.003).

Key:
[1] = xn = mol fraction of the nth substance listed; conditions: 100 kPa, Liquid, Frequency=0.01 MHz, Alternating current cell with electrodes
[2] = mn = molality of the nth substance listed, in mol/kg; conditions: 100 kPa, Liquid, Frequency=0.01 MHz, Alternating current cell with electrodes
[3] = 100 kPa, Liquid, Frequency=0.01 MHz, Alternating current cell with electrodes

CCCO [propan-1-ol] + O
electrical conductivity [S/m], [1]
Conditions | x2 = 0 | x2 = 0.1 | x2 = 0.2 | x2 = 0.3 | x2 = 0.4 | x2 = 0.5 | x2 = 0.6 | x2 = 0.7 | x2 = 0.8
293.15 K | 1.51e-06 | 3.98e-06 | 8.35e-06 | 1.38e-05 | 1.71e-05 | 2.01e-05 | 2.54e-05 | 2.84e-05 | 3.15e-05
298.15 K | 1.8e-06 | 4.32e-06 | 8.31e-06 | 1.46e-05 | 1.86e-05 | 2.13e-05 | 2.55e-05 | 2.93e-05 | 3.36e-05
303.15 K | 2.16e-06 | 4.68e-06 | 1.03e-05 | 1.58e-05 | 1.92e-05 | 2.27e-05 | 2.68e-05 | 3.06e-05 | 3.5e-05
308.15 K | 2.38e-06 | 4.92e-06 | 8.6e-06 | 1.65e-05 | 2.01e-05 | 2.55e-05 | 2.96e-05 | 3.26e-05 | 3.75e-05

[I-].[Na+] [sodium iodide] + CCCO
[2]
Conditions | electrical conductivity [S/m]
293.15 K, m1 = 0.0007138 | 0.00107
298.15 K, m1 = 0.0009446 | 0.00154
303.15 K, m1 = 0.0007238 | 0.00135
308.15 K, m1 = 0.0006021 | 0.00126

CCCO [propan-1-ol]
[3]
Conditions | electrical conductivity [S/m]
293.15 K | 1.51e-06
298.15 K | 1.8e-06
303.15 K | 2.16e-06
308.15 K | 2.38e-06
